≈ marks a conversion by molar mass, not a printed value.

The subject of experiment [1] is Brachyspira hyodysenteriae. Put plainly: Tested for antibacterial activity expressed as minimum inhibitory concentration against Serpulina (Treponema) hyodysenteriae. The experiment is classed as functional.
The next experiment concerns Pasteurella multocida. Put plainly: Tested for antibacterial activity expressed as minimum inhibitory concentration against Pasteurella multocida. The experiment is classed as functional.

Regarding `CC(=O)[C@H]1O[C@@H](Oc2ccc(/C=C(\C)C(=O)N[C@@H]3[C@H](O)[C@@H](O)[C@H]4OCO[C@H]4[C@@H]3O)cc2O)[C@@H](O)[C@@H]1O` [HYGROMYCIN A], the minimum inhibitory concentration (MIC) (in experiment [1]; in the experiment on Pasteurella multocida) was 0.78 µg/mL (≈ 1.52 µM) each time.
Consider `C=CCOc1ccc(/C=C(\C)C(=O)N[C@@H]2[C@H](O)[C@@H](O)[C@H]3OCO[C@H]3[C@@H]2O)cc1O`, for which the minimal inhibitory concentration (MIC) (commonly the least concentration at which growth counts as inhibited) in experiment [1] came out at 0.78 µg/mL (≈ 1.91 µM); with Pasteurella multocida it was 3.13 µg/mL (≈ 7.68 µM).
With `COc1ccc(/C=C(\C)C(=O)N[C@H]2C(O)[C@H](n3cnc4c(N(C)C)ncnc43)O[C@@H]2CO)cc1` (some centres not stated), the MIC in experiment [1] came to 50 µg/mL (≈ 107 µM); in the experiment with Pasteurella multocida, 200 µg/mL (≈ 427 µM).
`COc1ccc(/C=C(\C)C(=O)N[C@@H]2[C@H](O)[C@@H](O)[C@H]3OCO[C@H]3[C@@H]2O)cc1`: the MIC (in experiment [1]; in the experiment with Pasteurella multocida) was greater than 200 µg/mL each time.
In the case of `C=CCOc1ccc(/C=C(\C)C(=O)N[C@H]2[C@@H](O)[C@H](OC)O[C@@H]2CO)cc1O`, the minimal inhibitory concentration (MIC) (in experiment [1]; against Pasteurella multocida) was greater than 200 µg/mL each time.
Take `C=CCOc1ccc(/C=C(\C)C(=O)N[C@@H]2[C@H](O)[C@@H](O)[C@H]3OCO[C@H]3[C@@H]2O)cc1`: the MIC stood at 6.25 µg/mL (≈ 16 µM) in experiment [1] and 50 µg/mL (≈ 128 µM) against Pasteurella multocida.
For the compound `C=CCOc1ccc(/C=C(\C)C(=O)N[C@H]2C(O)[C@H](n3cnc4c(N(C)C)ncnc43)O[C@@H]2CO)cc1` (some centres not stated), the MIC in experiment [1] is 50 µg/mL (≈ 101 µM); in the experiment on Pasteurella multocida, greater than 200 µg/mL.
In the same order, the values of `C/C(=C\c1ccc(O[C@@H]2O[C@H]([C@H](C)O)[C@@H](O)[C@@H]2O)c(O)c1)C(=O)N[C@H]1C(O)[C@H](n2cnc3c(N(C)C)ncnc32)O[C@@H]1CO` (some centres not stated) are 200 µg/mL (≈ 324 µM) and 200 µg/mL (≈ 324 µM).
For the compound `C/C(=C\c1ccc(O[C@@H]2O[C@H]([C@H](C)O)[C@@H](O)[C@@H]2O)c(O)c1)C(=O)N[C@@H]1[C@H](O)[C@@H](O)[C@H]2OCO[C@H]2[C@@H]1O`, the MIC in experiment [1] is 3.13 µg/mL (≈ 6.1 µM); against Pasteurella multocida, 6.25 µg/mL (≈ 12.2 µM).
Turning to `C=CCOc1ccc(/C=C(\C)C(=O)N[C@H]2C(O)[C@H](n3cnc4c(N(C)C)ncnc43)O[C@@H]2CO)cc1O` (some centres not stated), the minimum inhibitory concentration (MIC) in experiment [1] was 1.56 µg/mL (≈ 3.06 µM); with Pasteurella multocida it was 6.25 µg/mL (≈ 12.2 µM).
As to `CO/C(CO[C@H]1O[C@H](C)[C@@H](OC)[C@H](OC)[C@@H]1O)=C1\O[C@@H](Oc2ccc(/C=C(\C)C(=O)NC3C(O)[C@H](n4cnc5c(N(C)C)ncnc54)O[C@@H]3CO)cc2)[C@@H](O)[C@@H]1O` (some centres not stated), the MIC (in experiment [1]; against Pasteurella multocida) was 3.13 µg/mL (≈ 3.9 µM) throughout.

Values taken from ChEMBL document CHEMBL1149925, “Application of hygromycin a structure activity relationships to the antibiotic A201A” (1993).
